Key:
[1] = test system: surinam grass; assay: Test B pre/postemergence surinam grass; assay type: in vivo, Brachiaria decumbens
Outline: (§1)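 Test chemicals in a non-phytotoxic solvent mixture with surfactant were sprayed preemergence onto planted seeds and postemergence onto plants 2 to 18 cm tall (1- to 4-leaf stage). After twelve to sixteen days in a greenhouse, injury was visually rated against untreated controls from 0 (no effect) to 10 (complete control).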

[2] = test system: rape; assay: Test B pre/postemergence rape; assay type: in vivo, Brassica napus
Outline: as §1

[3] = test system: sugar beet; assay: Test B pre/postemergence sugar beet; assay type: in vivo, Beta vulgaris
Outline: as §1

[4] = test system: soybean; assay: Test B pre/postemergence soybean; assay type: in vivo, Glycine max
Outline: as §1

[5] = test system: bedstraw; assay: Test B pre/postemergence bedstraw; assay type: in vivo, Galium aparine
Outline: as §1

[6] = test system: smallflower flatsedge; assay: Test B flood test smallflower flatsedge; assay type: in vivo, Cyperus difformis
Outline: (§2)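 Plants were grown to the 2-leaf stage before treatment with test chemical, then held in a greenhouse for twelve to sixteen days. Injury was visually rated against untreated controls on a 0–10 scale, where 0 is no effect and 10 is complete control.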

[7] = test system: rice; assay: Test B flood test rice; assay type: in vivo, Oryza sativa
Outline: as §2

[8] = test system: blackgrass; assay: Test B pre/postemergence blackgrass; assay type: in vivo, Alopecurus myosuroides
Outline: as §1

[9] = test system: corn; assay: Test B pre/postemergence corn; assay type: in vivo, Zea mays
Outline: as §1

[10] = test system: purple nutsedge; assay: Test B pre/postemergence purple nutsedge; assay type: in vivo, Cyperus rotundus
Outline: as §1

[11] = test system: morningglory; assay: Test B pre/postemergence morningglory; assay type: in vivo, Ipomoea hederacea
Outline: as §1

[12] = test system: cocklebur; assay: Test B pre/postemergence cocklebur; assay type: in vivo, Xanthium strumarium
Outline: as §1

[13] = test system: pigweed; assay: Test B pre/postemergence pigweed; assay type: in vivo, Amaranthus retroflexus
Outline: as §1

[14] = test system: velvetleaf; assay: Test B pre/postemergence velvetleaf; assay type: in vivo, Abutilon theophrasti
Outline: as §1

[15] = test system: wild oat; assay: Test B pre/postemergence wild oat; assay type: in vivo, Avena fatua
Outline: as §1

[16] = test system: bamyardgrass; assay: Test B flood test barnyardgrass; assay type: in vivo, Echinochloa crus-galli
Outline: as §2

[17] = Preemergence, Rate 62 g/ha, scale of 0 to 10 where 0 is no effect and 10 is complete control
[18] = Preemergence, Rate 125 g/ha, 0 is no effect, 10 is complete control
[19] = Preemergence, Rate 250 g/ha, scale 0 to 10, 0 is no effect, 10 is complete control
[20] = Preemergence, Rate 500 g/ha, scale of 0 to 10 where 0 is no effect and 10 is complete control
[21] = Rate 62 g/ha, Postemergence, scale of 0 to 10 where 0 is no effect and 10 is complete control
[22] = Rate 125 g/ha, Postemergence, scale 0 to 10
[23] = Rate 500 g/ha, Postemergence, scale 0 to 10
[24] = Rate 62 g/ha, headed Pre-emergence (flood test species), scale 0 to 10 (0 no effect, 10 complete control)
[25] = Rate 125 g/ha, Pre-emergence, flood test species, scale 0 to 10 where 0 is no effect and 10 is complete control
[26] = Rate 250 g/ha, Pre-emergence, flood-test species, scale 0 to 10, 0 is no effect, 10 is complete control
[27] = Rate 500 g/ha, headed Pre-emergence (flood test species), scale 0 to 10 (0 no effect, 10 complete control)

CCC(CC)N(C(=O)n1oc(=O)n(-c2ccccc2C)c1=O)c1ccc(F)cc1 [Compound 193]
2: Soybean plant response rating [4, 23] | Morningglory plant response rating [11, 23]
0: B. signalgrass plant response rating [1, 17] | B. signalgrass plant response rating (0 to 10 scale) [1, 18] | B. signalgrass plant response rating [1, 19] | Plant response rating, B. signalgrass [1, 20] | B. signalgrass plant response rating [1, 21] | B. signalgrass plant response rating ([1]; Rate 125 g/ha, Postemergence, scale 0 (no effect) to 10 (complete control)) | Plant response rating, B. signalgrass ([1]; Rate 250 g/ha, Postemergence, scale 0 to 10, 0 is no effect, 10 is complete control) | B. signalgrass plant response rating ([1]; Rate 500 g/ha, Postemergence, scale 0 to 10, 0 no effect, 10 complete control) | Rape plant response rating [2, 17] | Rape plant response rating (0 to 10 scale) [2, 18] | Rape plant response rating [2, 19] | Plant response rating, Rape [2, 20] | Rape plant response rating [2, 21] | Rape plant response rating [2, 22] | Plant response rating (0 to 10; 0 is no effect, 10 is complete control), Rape ([2]; Rate 250 g/ha, Postemergence) | Rape plant response rating [2, 23] | Sugarbeets plant response rating [3, 17] | Sugarbeets plant response rating (0 to 10 scale) [3, 18] | Sugarbeets plant response rating [3, 19] | Plant response rating, Sugarbeets [3, 20] | Sugarbeets plant response rating [3, 21] | Sugarbeets plant response rating [3, 22] | Plant response rating (0 to 10; 0 is no effect, 10 is complete control), Sugarbeets ([3]; Rate 250 g/ha, Postemergence) | Sugarbeets plant response rating [3, 23] | Soybean plant response rating [4, 17] | Soybean plant response rating (0 to 10 scale) [4, 18] | Soybean plant response rating [4, 19] | Plant response rating, Soybean [4, 20] | Soybean plant response rating [4, 21] | Bedstraw plant response rating [5, 17] | Bedstraw plant response rating (0 to 10 scale) [5, 18] | Bedstraw plant response rating [5, 19] | Plant response rating, Bedstraw [5, 20] | Bedstraw plant response rating [5, 21] | Bedstraw plant response rating [5, 22] | Plant response rating (0 to 10; 0 is no effect, 10 is complete control), Bedstraw ([5]; Rate 250 g/ha, Postemergence) | Bedstraw plant response rating [5, 23] | S. Flatsedge plant response rating [6, 24] | S. Flatsedge plant response rating [6, 25] | S. Flatsedge plant response rating [6, 26] | S. Flatsedge plant response rating ([6]; Rate 500 g/ha, Pre-emergence, flood test species, scale 0 to 10 (0 no effect, 10 complete control)) | Rice plant response rating [7, 24] | Rice plant response rating [7, 25] | Rice plant response rating [7, 26] | Plant response rating, Rice [7, 27] | Blackgrass plant response rating [8, 17] | Blackgrass plant response rating (0 to 10 scale) [8, 18] | Blackgrass plant response rating [8, 19] | Plant response rating, Blackgrass [8, 20] | Blackgrass plant response rating [8, 21] | Blackgrass plant response rating [8, 22] | Plant response rating (0 to 10; 0 is no effect, 10 is complete control), Blackgrass ([8]; Rate 250 g/ha, Postemergence) | Blackgrass plant response rating [8, 23] | Corn plant response rating [9, 17] | Corn plant response rating (0 to 10 scale) [9, 18] | Corn plant response rating [9, 19] | Plant response rating, Corn [9, 20] | Corn plant response rating [9, 21] | Corn plant response rating [9, 22] | Plant response rating (0 to 10; 0 is no effect, 10 is complete control), Corn ([9]; Rate 250 g/ha, Postemergence) | Corn plant response rating [9, 23] | Nutsedge plant response rating [10, 17] | Nutsedge plant response rating (0 to 10 scale) [10, 18] | Nutsedge plant response rating [10, 19] | Plant response rating, Nutsedge [10, 20] | Nutsedge plant response rating [10, 21] | Nutsedge plant response rating [10, 22] | Plant response rating (0 to 10; 0 is no effect, 10 is complete control), Nutsedge ([10]; Rate 250 g/ha, Postemergence) | Nutsedge plant response rating [10, 23] | Morningglory plant response rating [11, 17] | Morningglory plant response rating (0 to 10 scale) [11, 18] | Morningglory plant response rating [11, 19] | Plant response rating, Morningglory [11, 20] | Morningglory plant response rating [11, 21] | Morningglory plant response rating [11, 22] | Cocklebur plant response rating [12, 17] | Cocklebur plant response rating (0 to 10 scale) [12, 18] | Cocklebur plant response rating [12, 19] | Plant response rating, Cocklebur [12, 20] | Cocklebur plant response rating [12, 21] | Cocklebur plant response rating [12, 22] | Plant response rating (0 to 10; 0 is no effect, 10 is complete control), Cocklebur ([12]; Rate 250 g/ha, Postemergence) | Cocklebur plant response rating [12, 23] | Redroot pigweed plant response rating [13, 17] | Redroot pigweed plant response rating (0 to 10 scale) [13, 18] | Redroot pigweed plant response rating [13, 19] | Plant response rating, Redroot pigweed [13, 20] | Redroot pigweed plant response rating [13, 21] | Redroot pigweed plant response rating [13, 22] | Plant response rating (0 to 10; 0 is no effect, 10 is complete control), Redroot pigweed ([13]; Rate 250 g/ha, Postemergence) | Redroot pigweed plant response rating [13, 23] | Velvetleaf plant response rating [14, 17] | Velvetleaf plant response rating [14, 19] | Plant response rating, Velvetleaf [14, 20] | Velvetleaf plant response rating [14, 21] | Velvetleaf plant response rating [14, 22] | Plant response rating (0 to 10; 0 is no effect, 10 is complete control), Velvetleaf ([14]; Rate 250 g/ha, Postemergence) | Wild oats plant response rating [15, 17] | Wild oats plant response rating [15, 19] | Plant response rating, Wild oats [15, 20] | Wild oats plant response rating [15, 21] | Wild oats plant response rating [15, 22] | Plant response rating (0 to 10; 0 is no effect, 10 is complete control), Wild oats ([15]; Rate 250 g/ha, Postemergence) | Barnyardgrass plant response rating [16, 24] | Barnyardgrass plant response rating [16, 25] | Barnyardgrass plant response rating [16, 26] | Plant response rating, Barnyardgrass [16, 27]
1: Soybean plant response rating [4, 22] | Plant response rating (0 to 10; 0 is no effect, 10 is complete control), Soybean ([4]; Rate 250 g/ha, Postemergence) | Plant response rating (0 to 10; 0 is no effect, 10 is complete control), Morningglory ([11]; Rate 250 g/ha, Postemergence)

Reference: patent US6737383B1, “Herbicidal oxadiazolidines” (priority 1999, dated 2004)
